What was measured:
[1] = system: Rat Cardiac Contractility; experiment: Echocardiography assessment of acute pharmacodynamic effect in rat cardiac contractility (fractional shortening); type: in vivo, Sprague Dawley rats; settings: oral gavage, plasma concentration vs fractional shortening, 1 and 4 h post-dose
Experimental: Assessment of in vivo cardiac function by echocardiography was performed in male Sprague Dawley rats under isoflurane (1-3%) anesthesia. 2-D M-mode images of the left ventricle were acquired in the parasternal long-axis view before, during, and after administration of compounds. In vivo fractional shortening was determined by M-mode image analysis with the following calculation: ((End diastolic diameter−end systolic diameter)[…] end diastolic diameter×100). Three pre-dose baseline M-Mode images were taken at 1-minute intervals prior to compound administration. Compounds were formulated in a 0.5% hydroxypropyl methylcellulose 2910 (HPMC 2910): 0.1% Tween 80 suspension and delivered as a single dose (5 mL/kg) by oral gavage. At one and four hours post-dose, rats were lightly anesthetized for M-mode echocardiography measurement. Concurrent with echocardiography measurements, blood samples were taken to determine the corresponding compound plasma concentrations. The resulting plasma concentrations were used to estimate the IC50 and IC10 values, which is the concentration at which fractional shortening is 50% and 10% of the pre-dose baseline contractility, respectively.

[2] = Dog single dose pharmacokinetics; type: in vivo, beagle dogs; settings: male, beagle, plasma, IV; for half-life: read-out: t½ (converted); for Vd: read-out: Vss
Experimental: Non-naïve male beagle dogs (8 months-3 years of age, body weight 8-13 kg) were used in this study. All animals for IV administration had free access to food and water; all animals for PO were fasted overnight prior to dosing and were fed approximately 6 hours after dosing. For the animals in PO group, pentagastrin (6.0 μg/kg, i.m.) was administrated 20 minutes before dosing PO formulation and 1.5 hours after the first pentagastrin dosing. The dosing volume was 0.024 mL/kg, the concentration was 250 μg/mL in DMSO/1 N NaOH/PBS. 10 mL of 0.001 N HCl was used to wash the gavage catheter for each animal. The IV dose solution was prepared in 10% DMA/50% PG/40% HPβCD solution (40% w/v aqueous HPβCD) at a concentration of 1.0 mg/mL. The oral dose suspension was prepared by suspending the compound in 0.5% HPMC/0.1% Tween 80 in distilled water at a concentration of 0.2 mg/mL. Concentrations of IV and PO doses were measured at the end of the study. PK parameters were calculated using the nominal dose values if the measured values were within 20% of the nominal values. Blood samples were collected by venipuncture of peripheral veins except the dosing vein at pre-dose, 5 15, 30 min, 1, 2, 4, 6, 8, 24 and 48 h post-dose. Blood samples were centrifuged and resultant plasma was frozen for bioanalysis. Plasma samples were stored at −80° C. before analysis. Plasma samples were analyzed for compound concentrations using the LC/MS/MS method. Briefly, a 50 μL aliquot of each plasma sample was mixed with 100 μL of acetonitrile that contained an internal standard. The mixture was vortexed and centrifuged. Ten (10) μL of the resulting solution was injected onto a reverse-phase C18 column and the resultant peaks detected on a LC/MS/MS equipped with a turbo ionspray ionization source. Sample concentrations below the limit of quantification (BLQ) were treated as zero for PK calculations. PK parameters were estimated from individual animals using noncompartmental analysis of the concentration-time data (Phoenix WinNonLin software, version 64; Pharsight, Mountain View, CA). The elimination rate constant (k) was calculated as the absolute value of the slope of the linear regression of logarithm (log) of the concentration versus time for the last three data points of the concentration-time profiles. Apparent elimination half-life (t1/2) values were calculated as ln(2)/k. Area under the concentration-time curve (AUC) values were estimated using linear trapezoidal method. AUCt values were calculated from the dosing time to the last measurable concentration. AUC∞ values were calculated as the sum of the corresponding AUCt and the ratio of the last detectable concentration divided by k. Plasma clearance (CL) was calculated from Dose/AUC∞. Mean resident time extrapolated to infinity (MRT∞) was estimated by moment analysis. Vss was calculated from MRT∞×CL. Maximum concentration (Cmax) and time to reach Cmax (tmax) were recorded as observed. As this was a cross-over study, bioavailability was calculated dAUC∞,po/dAUC∞,iv×100% where dAUC was the dose normalized AUC value from the same animal given IV and PO dose. Data for compounds tested are provided in Table D. Compounds tested were prepared in accordance with the synthetic procedures described herein.

[3] = Projected single-dose CL and Vss values in humans (allometric scaling of mouse, rat, dog, monkey IV PK); settings: human, projected by allometric scaling from single-dose IV PK
Experimental: Allometric scaling for the prediction of human Clearance and Volume of Distribution was based on interspecies simple allometric scaling of mouse, rat, dog, and cynomolgus monkey intravenous pharmacokinetic parameters (Boxenbaum, J Pharmacokinet Biopharm 10:201-27, 1982). Prediction of human CL was performed by extrapolating pre-clinical species' plasma intravenous clearance. The ‘rule of exponents’ (Mahmood & Balian, Life Sci 59:579-85, 1996) was examined in this prediction, where it has been proposed that, when the exponent of simple allometry lies between […] and 0.99, a correction factor based on Maximum Life Span (MLP) of this species can be applied and, when the exponent of simple allometry is greater than 1.0, a correction factor based on Brain Weight (BrW) can be applied, or a protein binding correction can be applied when available. In a similar manner, simple allometric scaling was employed to predict human Volume of Distribution. This method has been used successfully for varied drugs (Ward & Smith, Drug Metab Dispos 32:612-19, 2004; McGinnity et al., Curr Drug Metab 8:463-79, 2007).

SMILES | IC50 [1] [nM] | half-life [2] [h] | Projected CL [3] [mL/min/kg] | Projected Vss [3] [L/kg] | Projected t½ [3] [h] | clearance [2] [mL/min/kg] | Vd [2] [L/kg] | IC10 [1] [nM]
C[C@H]1CC[C@H](N2CC(=O)N(Cc3ccc(F)c(F)c3)C3(CN(C(N)=O)C3)C2=O)CC1 [Compound 5, 5-(3,4-difluorobenzyl)-8-((1r,4r)-4-methylcyclohexyl)-6,9-dioxo-2,5,8-triazaspiro[3.5]nonane-2-carboxamide] | 4440 | – | – | – | – | – | – | 1170
C[C@H]1CC[C@H](N2CC(=O)N(Cc3ccc(Cl)cc3)C3(CN(C(N)=O)C3)C2=O)CC1 [Compound 18, 5-(4-chlorobenzyl)-8-((1r,4r)-4-methylcyclohexyl)-6,9-dioxo-2,5,8-triazaspiro[3.5]nonane-2-carboxamide] | 2840 | 5.8 | 3.3 | 7.1 | 25 | 18.8 | 5.73 | 892

Further compounds by falling IC50 [1], results first:

IC50 [1] [nM] | half-life [2] [h] | Projected CL [3] [mL/min/kg] | Projected Vss [3] [L/kg] | Projected t½ [3] [h] | clearance [2] [mL/min/kg] | Vd [2] [L/kg] | SMILES | IC10 [1] [nM]
2760 | 9.54 | 1.84 | 4.51 | 28.3 | – | – | C[C@H]1CC[C@H](N2CC(=O)N(Cc3ccc(F)c(F)c3)C3(CN(C=O)C3)C2=O)CC1 [Compound 4, 5-(3,4-difluorobenzyl)-8-((1r,4r)-4-methylcyclohexyl)-6,9-dioxo-2,5,8-triazaspiro[3.5]nonane-2-carbaldehyde] | 284
2250 | – | – | – | – | – | – | CC(C)N1CC(=O)N(Cc2ccc(Cl)c(F)c2)C2(CN(c3cccnn3)C2)C1=O [Compound 8, 5-(4-chloro-3-fluorobenzyl)-8-isopropyl-2-(pyridazin-3-yl)-2,5,8-triazaspiro[3.5]nonane-6,9-dione] | 508
1170 | 6.44 | 4.66 | 3.43 | 8.51 | 7.45 | 2.85 | CC(C)N1CC(=O)N(Cc2ccc(C(F)(F)F)cc2)C2(CN(c3cccnn3)C2)C1=O [Compound 13, 8-isopropyl-2-(pyridazin-3-yl)-5-(4-(trifluoromethyl)benzyl)-2,5,8-triazaspiro[3.5]nonane-6,9-dione] | 317

From patent US12286437B2, “Cardiac sarcomere inhibitors” (Cytokinetics, Inc., priority 2021, dated 2025)
